The structures appear in SMILES notation.

The values below come from ChEMBL document CHEMBL2074204, “The endothelin antagonist bosentan inhibits the canalicular bile salt export pump: a potential mechanism for hepatic adverse reactions” (Clin Pharmacol Ther, 2001).

The test deals with T1, Bile salt export pump (Rattus norvegicus, UniProt O70127).
T1 sequence (O70127 whole entry): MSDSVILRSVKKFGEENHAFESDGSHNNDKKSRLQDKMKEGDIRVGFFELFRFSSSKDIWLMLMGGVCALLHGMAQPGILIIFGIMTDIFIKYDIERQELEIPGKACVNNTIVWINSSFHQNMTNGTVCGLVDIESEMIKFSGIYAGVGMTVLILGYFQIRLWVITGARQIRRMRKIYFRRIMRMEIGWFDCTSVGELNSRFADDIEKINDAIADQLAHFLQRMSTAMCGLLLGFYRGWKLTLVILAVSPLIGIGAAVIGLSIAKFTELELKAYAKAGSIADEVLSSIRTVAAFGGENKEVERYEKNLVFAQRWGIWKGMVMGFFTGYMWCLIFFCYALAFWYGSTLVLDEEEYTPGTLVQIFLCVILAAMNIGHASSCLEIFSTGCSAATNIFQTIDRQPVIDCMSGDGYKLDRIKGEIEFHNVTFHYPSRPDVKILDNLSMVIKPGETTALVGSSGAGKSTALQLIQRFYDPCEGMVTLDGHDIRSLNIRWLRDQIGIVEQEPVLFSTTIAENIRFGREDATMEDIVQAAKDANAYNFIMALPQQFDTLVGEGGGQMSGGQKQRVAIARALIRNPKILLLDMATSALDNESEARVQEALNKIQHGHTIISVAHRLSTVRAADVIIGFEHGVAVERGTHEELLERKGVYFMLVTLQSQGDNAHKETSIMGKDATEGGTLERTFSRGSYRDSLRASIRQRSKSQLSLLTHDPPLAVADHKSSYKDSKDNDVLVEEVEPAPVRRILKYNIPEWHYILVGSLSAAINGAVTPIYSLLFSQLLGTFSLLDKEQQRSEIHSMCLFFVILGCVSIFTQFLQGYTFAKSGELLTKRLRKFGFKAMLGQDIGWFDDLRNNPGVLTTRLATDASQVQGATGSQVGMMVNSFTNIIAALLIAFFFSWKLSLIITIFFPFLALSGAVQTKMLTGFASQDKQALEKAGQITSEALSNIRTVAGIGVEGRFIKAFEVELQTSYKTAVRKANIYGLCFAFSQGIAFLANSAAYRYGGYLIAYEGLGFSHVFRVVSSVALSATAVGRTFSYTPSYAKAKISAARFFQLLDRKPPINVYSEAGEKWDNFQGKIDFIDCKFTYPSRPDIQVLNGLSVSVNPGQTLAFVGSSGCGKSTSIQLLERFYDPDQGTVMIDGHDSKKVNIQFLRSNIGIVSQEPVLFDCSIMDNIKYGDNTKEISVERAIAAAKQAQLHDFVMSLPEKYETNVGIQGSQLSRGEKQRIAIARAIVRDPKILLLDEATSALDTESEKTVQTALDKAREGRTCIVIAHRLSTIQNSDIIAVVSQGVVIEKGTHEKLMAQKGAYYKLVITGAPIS
In words: TP_TRANSPORTER: inhibition of Taurocholate uptake in membrane vesicle from Bsep-expressing Sf9-cell. The class given is functional, cell membranes.

`COc1ccccc1Oc1c(NS(=O)(=O)c2ccc(C(C)(C)C)cc2)nc(-c2ncccn2)nc1OCCO` [BOSENTAN]: the inhibition constant Ki is 12 µM. Then `CC(C)(C)c1ccc(S(=O)(=O)Nc2nc(-c3ncccn3)nc(OCCO)c2Cc2ccccc2O)cc1` [BOSENTAN M2], with 8.5 µM.

A word on the Ki: it is the equilibrium dissociation constant of an inhibitor or competing ligand from its target.
